Test: molar heat capacity at constant pressure
Details: 101.33 kPa, DSC

[Ag+].[Ag+].[S-2] [silver sulfide]
Details | molar heat capacity at constant pressure [J/K/mol]
617.82 K, Crystal 2 | 86.15
618.82 K, Crystal 2 | 86.13
619.82 K, Crystal 2 | 86.1
620.82 K, Crystal 2 | 86.08
621.82 K, Crystal 2 | 86.05
622.82 K, Crystal 2 | 86.03
623.82 K, Crystal 2 | 86.01
624.82 K, Crystal 2 | 85.99
625.82 K, Crystal 2 | 85.96
626.82 K, Crystal 2 | 85.94
627.82 K, Crystal 2 | 85.92
628.82 K, Crystal 2 | 85.9
629.82 K, Crystal 2 | 85.88
630.82 K, Crystal 2 | 85.86
631.82 K, Crystal 2 | 85.84
632.82 K, Crystal 2 | 85.82
633.82 K, Crystal 2 | 85.8
634.82 K, Crystal 2 | 85.78
635.82 K, Crystal 2 | 85.76
636.82 K, Crystal 2 | 85.74
637.82 K, Crystal 2 | 85.73
638.82 K, Crystal 2 | 85.71
639.82 K, Crystal 2 | 85.7
640.82 K, Crystal 2 | 85.7
641.82 K, Crystal 2 | 85.69
642.82 K, Crystal 2 | 85.67
643.82 K, Crystal 2 | 85.66
644.82 K, Crystal 2 | 85.65
645.82 K, Crystal 2 | 85.64
646.82 K, Crystal 2 | 85.62
647.82 K, Crystal 2 | 85.62
648.82 K, Crystal 2 | 85.61
649.82 K, Crystal 2 | 85.6
650.82 K, Crystal 2 | 85.59
651.82 K, Crystal 2 | 85.57
652.82 K, Crystal 2 | 85.57
653.82 K, Crystal 2 | 85.57
654.82 K, Crystal 2 | 85.57
655.82 K, Crystal 2 | 85.56
656.82 K, Crystal 2 | 85.56
657.82 K, Crystal 2 | 85.56
658.82 K, Crystal 2 | 85.56
659.82 K, Crystal 2 | 85.57
660.82 K, Crystal 2 | 85.56
661.82 K, Crystal 2 | 85.56
662.82 K, Crystal 2 | 85.57
663.82 K, Crystal 2 | 85.57
664.82 K, Crystal 2 | 85.57
665.82 K, Crystal 2 | 85.57
666.82 K, Crystal 2 | 85.57
667.82 K, Crystal 2 | 85.57
668.82 K, Crystal 2 | 85.57
669.82 K, Crystal 2 | 85.58
670.82 K, Crystal 2 | 85.59
671.82 K, Crystal 2 | 85.6
672.82 K, Crystal 2 | 85.61
673.82 K, Crystal 2 | 85.62
674.82 K, Crystal 2 | 85.63
675.82 K, Crystal 2 | 85.64
676.82 K, Crystal 2 | 85.66
677.82 K, Crystal 2 | 85.67
678.82 K, Crystal 2 | 85.69
679.82 K, Crystal 2 | 85.7
680.82 K, Crystal 2 | 85.72
681.82 K, Crystal 2 | 85.74
682.82 K, Crystal 2 | 85.75
683.82 K, Crystal 2 | 85.77
684.82 K, Crystal 2 | 85.79
685.82 K, Crystal 2 | 85.81
686.82 K, Crystal 2 | 85.83
687.82 K, Crystal 2 | 85.85
688.82 K, Crystal 2 | 85.87
689.82 K, Crystal 2 | 85.89
690.82 K, Crystal 2 | 85.92
691.82 K, Crystal 2 | 85.94
692.82 K, Crystal 2 | 85.96
693.82 K, Crystal 2 | 85.99
694.82 K, Crystal 2 | 86.01
695.82 K, Crystal 2 | 86.04
696.82 K, Crystal 2 | 86.06
697.82 K, Crystal 2 | 86.09
698.82 K, Crystal 2 | 86.12
699.82 K, Crystal 2 | 86.14
700.82 K, Crystal 2 | 86.04
701.82 K, Crystal 2 | 86.05
702.82 K, Crystal 2 | 86.06
703.82 K, Crystal 2 | 86.07
704.82 K, Crystal 2 | 86.08
705.82 K, Crystal 2 | 86.09
706.82 K, Crystal 2 | 86.1
707.82 K, Crystal 2 | 86.11
708.82 K, Crystal 2 | 86.12
709.82 K, Crystal 2 | 86.13
710.82 K, Crystal 2 | 86.14
711.82 K, Crystal 2 | 86.15
712.82 K, Crystal 2 | 86.16
713.82 K, Crystal 2 | 86.17
714.82 K, Crystal 2 | 86.18
715.82 K, Crystal 2 | 86.19
716.82 K, Crystal 2 | 86.2
717.82 K, Crystal 2 | 86.21
718.82 K, Crystal 2 | 86.22
719.82 K, Crystal 2 | 86.23
720.82 K, Crystal 2 | 86.24
721.82 K, Crystal 2 | 86.25
722.82 K, Crystal 2 | 86.26
723.82 K, Crystal 2 | 86.26
724.82 K, Crystal 2 | 86.27
725.82 K, Crystal 2 | 86.28
726.82 K, Crystal 2 | 86.29
727.82 K, Crystal 2 | 86.3
728.82 K, Crystal 2 | 86.3
729.82 K, Crystal 2 | 86.31
730.82 K, Crystal 2 | 86.32
731.82 K, Crystal 2 | 86.32
732.82 K, Crystal 2 | 86.33
733.82 K, Crystal 2 | 86.33
734.82 K, Crystal 2 | 86.34
735.82 K, Crystal 2 | 86.34
736.82 K, Crystal 2 | 86.35
737.82 K, Crystal 2 | 86.35
738.82 K, Crystal 2 | 86.35
739.82 K, Crystal 2 | 86.35
740.82 K, Crystal 2 | 86.36
741.82 K, Crystal 2 | 86.36
742.82 K, Crystal 2 | 86.36
743.82 K, Crystal 2 | 86.36
744.82 K, Crystal 2 | 86.36
745.82 K, Crystal 2 | 86.36
746.82 K, Crystal 2 | 86.35
747.82 K, Crystal 2 | 86.35
748.82 K, Crystal 2 | 86.35
749.82 K, Crystal 2 | 86.35
750.82 K, Crystal 2 | 86.34
751.82 K, Crystal 2 | 86.34
752.82 K, Crystal 2 | 86.33
753.82 K, Crystal 2 | 86.33
754.82 K, Crystal 2 | 86.32
755.82 K, Crystal 2 | 86.31
756.82 K, Crystal 2 | 86.31
757.82 K, Crystal 2 | 86.3
758.82 K, Crystal 2 | 86.29
759.82 K, Crystal 2 | 86.28
760.82 K, Crystal 2 | 86.27
761.82 K, Crystal 2 | 86.27
762.82 K, Crystal 2 | 86.26
763.82 K, Crystal 2 | 86.25
764.82 K, Crystal 2 | 86.24
765.82 K, Crystal 2 | 86.23
766.82 K, Crystal 2 | 86.21
767.82 K, Crystal 2 | 86.2
768.82 K, Crystal 2 | 86.19
769.82 K, Crystal 2 | 86.18
770.82 K, Crystal 2 | 86.17
771.82 K, Crystal 2 | 86.16
772.82 K, Crystal 2 | 86.14
773.82 K, Crystal 2 | 86.13
774.82 K, Crystal 2 | 86.12
775.82 K, Crystal 2 | 86.11
776.82 K, Crystal 2 | 86.1
777.82 K, Crystal 2 | 86.08
778.82 K, Crystal 2 | 86.07
779.82 K, Crystal 2 | 86.06
780.82 K, Crystal 2 | 86.05
781.82 K, Crystal 2 | 86.04
782.82 K, Crystal 2 | 86.02
783.82 K, Crystal 2 | 86.01
784.82 K, Crystal 2 | 86
785.82 K, Crystal 2 | 85.99
786.82 K, Crystal 2 | 85.98
787.82 K, Crystal 2 | 85.97
788.82 K, Crystal 2 | 85.96
789.82 K, Crystal 2 | 85.95
790.82 K, Crystal 2 | 85.95
791.82 K, Crystal 2 | 85.94
792.82 K, Crystal 2 | 85.93
793.82 K, Crystal 2 | 85.93
794.82 K, Crystal 2 | 85.92
795.82 K, Crystal 2 | 85.92
796.82 K, Crystal 2 | 85.91
797.82 K, Crystal 2 | 85.91
798.82 K, Crystal 2 | 85.91
799.82 K, Crystal 2 | 85.9
800.82 K, Crystal 2 | 85.91
801.82 K, Crystal 2 | 85.92
802.82 K, Crystal 2 | 85.93
803.82 K, Crystal 2 | 85.94
804.82 K, Crystal 2 | 85.95
805.82 K, Crystal 2 | 85.96
806.82 K, Crystal 2 | 85.97
807.82 K, Crystal 2 | 85.98
808.82 K, Crystal 2 | 85.99
809.82 K, Crystal 2 | 86
810.82 K, Crystal 2 | 86.01
811.82 K, Crystal 2 | 86.02
812.82 K, Crystal 2 | 86.03
813.82 K, Crystal 2 | 86.04
814.82 K, Crystal 2 | 86.05
815.82 K, Crystal 2 | 86.06
816.82 K, Crystal 2 | 86.07
817.82 K, Crystal 2 | 86.08
818.82 K, Crystal 2 | 86.09
819.82 K, Crystal 2 | 86.1
820.82 K, Crystal 2 | 86.11
821.82 K, Crystal 2 | 86.12
822.82 K, Crystal 2 | 86.13
823.82 K, Crystal 2 | 86.14
824.82 K, Crystal 2 | 86.15
825.82 K, Crystal 2 | 86.16
826.82 K, Crystal 2 | 86.17
827.82 K, Crystal 2 | 86.18
828.82 K, Crystal 2 | 86.19
829.82 K, Crystal 2 | 86.2
830.82 K, Crystal 2 | 86.21
831.82 K, Crystal 2 | 86.23
832.82 K, Crystal 2 | 86.24
833.82 K, Crystal 2 | 86.25
834.82 K, Crystal 2 | 86.26
835.82 K, Crystal 2 | 86.27
836.82 K, Crystal 2 | 86.28
837.82 K, Crystal 2 | 86.29
838.82 K, Crystal 2 | 86.3
839.82 K, Crystal 2 | 86.31
840.82 K, Crystal 2 | 86.32
841.82 K, Crystal 2 | 86.33
842.82 K, Crystal 2 | 86.34
843.82 K, Crystal 2 | 86.35
844.82 K, Crystal 2 | 86.36
845.82 K, Crystal 2 | 86.37
846.82 K, Crystal 2 | 86.38
847.82 K, Crystal 2 | 86.39
848.82 K, Crystal 2 | 86.4
849.82 K, Crystal 2 | 86.41
866.21 K, Crystal 1 | 90.42
867.21 K, Crystal 1 | 88.01
868.11 K, Crystal 1 | 89.24
869.11 K, Crystal 1 | 88.03
870.11 K, Crystal 1 | 87.13
871.11 K, Crystal 1 | 86.12
872.11 K, Crystal 1 | 85.33
873.11 K, Crystal 1 | 85.06
874.11 K, Crystal 1 | 84.83
875.11 K, Crystal 1 | 84.62
876.11 K, Crystal 1 | 84.44
877.11 K, Crystal 1 | 84.28
878.11 K, Crystal 1 | 84.13
879.11 K, Crystal 1 | 83.93
880.11 K, Crystal 1 | 83.85
881.11 K, Crystal 1 | 83.77
882.11 K, Crystal 1 | 83.69
883.11 K, Crystal 1 | 83.62
884.11 K, Crystal 1 | 83.55
885.11 K, Crystal 1 | 83.48
886.11 K, Crystal 1 | 83.41
887.11 K, Crystal 1 | 83.34
888.11 K, Crystal 1 | 83.28
889.11 K, Crystal 1 | 83.22
890.11 K, Crystal 1 | 83.17
891.11 K, Crystal 1 | 83.11
892.11 K, Crystal 1 | 83.06
893.11 K, Crystal 1 | 83.01
894.11 K, Crystal 1 | 82.97
895.11 K, Crystal 1 | 82.92
896.11 K, Crystal 1 | 82.88
897.11 K, Crystal 1 | 82.85
898.11 K, Crystal 1 | 82.81
899.11 K, Crystal 1 | 82.78
900.11 K, Crystal 1 | 82.75
901.11 K, Crystal 1 | 82.69
902.11 K, Crystal 1 | 82.64
903.11 K, Crystal 1 | 82.59
904.11 K, Crystal 1 | 82.54
905.11 K, Crystal 1 | 82.49
906.11 K, Crystal 1 | 82.45
907.11 K, Crystal 1 | 82.41
908.11 K, Crystal 1 | 82.37
909.11 K, Crystal 1 | 82.34
910.11 K, Crystal 1 | 82.3
911.11 K, Crystal 1 | 82.27
912.11 K, Crystal 1 | 82.25
913.11 K, Crystal 1 | 82.22
914.11 K, Crystal 1 | 82.2
915.11 K, Crystal 1 | 82.18
916.11 K, Crystal 1 | 82.16
917.11 K, Crystal 1 | 82.15
918.11 K, Crystal 1 | 82.14
919.11 K, Crystal 1 | 82.13
920.11 K, Crystal 1 | 82.13
921.11 K, Crystal 1 | 82.12
922.11 K, Crystal 1 | 82.12
923.11 K, Crystal 1 | 82.12
924.11 K, Crystal 1 | 82.13
925.11 K, Crystal 1 | 82.14
926.11 K, Crystal 1 | 82.15
927.11 K, Crystal 1 | 82.16
928.11 K, Crystal 1 | 82.18
929.11 K, Crystal 1 | 82.2
930.11 K, Crystal 1 | 82.22
931.11 K, Crystal 1 | 82.23
932.11 K, Crystal 1 | 82.25
933.11 K, Crystal 1 | 82.26
934.11 K, Crystal 1 | 82.27
935.11 K, Crystal 1 | 82.29
936.11 K, Crystal 1 | 82.3
937.11 K, Crystal 1 | 82.31
938.11 K, Crystal 1 | 82.32

Source: the NIST ThermoML archive (doi:10.1016/j.tca.2017.12.013)
